This data set in a line: in vitro. Particulars: human, hela cells, % viability.

On to `CC(=O)c1ccc(-c2nccnc2N2CCN(c3ccncc3)CC2)s1` [CBK037015], for which the viability at 28.5 h, 10 µM was determined as 95.8%.

Take `COC(=O)N/N=C(\C)c1ccc(Br)s1` [CBK027886]: the viability at 28.5 h, 10 µM was 103%.

Turning to `O=C(O)CCCCC/N=C1\CCc2ccccc2N1` [CBK286773], the viability at 28.5 h, 10 µM was determined as 100%.

On to `O=C(Oc1ccc(/C=N/NC(=O)C2COc3ccccc3O2)cc1)c1cccnc1` (centres unmarked) [CBK262811], for which the viability at 28.5 h, 10 µM worked out at 96.5%.

For the compound `N#C/C(=C\c1ccc(-c2ccc3c(c2)C(=O)NC3=O)o1)c1nc2ccccc2[nH]1` [CBK262965], the viability at 28.5 h, 10 µM was 94.4%.

As for `Cc1cc2c(s1)c1cnn(CC(=O)NC3CCCC3)c(=O)c1n2C` [CBK284189], the viability at 28.5 h, 10 µM was 84.2%.

Regarding `COc1ccc(Oc2nccc(N3CCCN(CCc4ccc5ccccc5c4)CC3)n2)cc1OC` [CBK084164], the viability at 28.5 h, 10 µM was found to be 87%.

Consider `COc1cncc(-c2ccc(Nc3ccc(OC)nc3)nc2)c1` [CBK037773], for which the viability at 28.5 h, 10 µM is 103%.

For the compound `COc1ccccc1C(=O)Nc1ccccc1N1CCN(C)CC1` [CBK267938], the viability at 28.5 h, 10 µM was determined as 91.8%.

In the case of `CC(C)(C)CC(=O)O/N=C(\N)c1ccccn1` [CBK265779], the viability at 28.5 h, 10 µM turned out to be 105%.

`O=C(c1cccnc1)N1CCCC(c2cc3ccccc3cn2)C1` (centres unmarked) [CBK285154]: the viability at 28.5 h, 10 µM is 98.6%.

Consider `COc1ccc(C(=O)c2oc3cc(NC(=O)c4cccnc4)ccc3c2C)cc1` [CBK287652], for which the viability at 28.5 h, 10 µM amounted to 85.1%.

Regarding `Cc1cc2ncn(CC(=O)N3CCC(F)CC3)c2cc1C` [CBK200266], the viability at 28.5 h, 10 µM is 104%.

For `CC1=C[C@@H](CO)[C@H](C(C)C)C[C@H]1Cc1nnc(-c2ccncc2)o1` [CBK289222], the viability at 28.5 h, 10 µM was found to be 110%.

On to `CN(Cc1ccccc1N1CCOCC1)C(=O)Cc1cn2ccsc2n1` [CBK305830], for which the viability at 28.5 h, 10 µM amounted to 109%.

For the compound `CCOc1ncccc1C(=O)NCc1ccc(NC(N)=O)cc1` [CBK279382], the viability at 28.5 h, 10 µM came to 111%.

Consider `Nc1cc(N)nc(SCc2ccccc2)n1` [CBK261266], for which the viability at 28.5 h, 10 µM was determined as 96.1%.

Regarding `CN(C)CCNC(=O)c1cc(-c2ccncc2)nc2ccc(Br)cc12` [CBK267728], the viability at 28.5 h, 10 µM was 103%.

For the compound `CNC(=O)c1ccc(-c2cccc(OC(F)(F)F)c2)nc1NCCOC` [CBK106000], the viability at 28.5 h, 10 µM is 96.4%.

Take `CCOC(=O)C(CO)NC(=O)c1cncc(Br)c1` (centres unmarked) [CBK263926]: the viability at 28.5 h, 10 µM was found to be 83.8%.

In the case of `NC(=O)c1ccccc1NC(=O)c1ccc2ccccc2c1` [CBK261171], the viability at 28.5 h, 10 µM came out at 90.8%.

For the compound `CN1CCN(C(=S)c2ccc(OCC(=O)Nc3cccc(C(F)(F)F)c3)cc2)CC1` [CBK266826], the viability at 28.5 h, 10 µM was 92.2%.

Take `CN1CCN(C(=O)CSc2nc(-c3cccs3)cc(C(F)(F)F)n2)CC1` [CBK307372]: the viability at 28.5 h, 10 µM stood at 92.3%.

In the case of `COc1cccc(CC(=O)N2[C@H](Cc3ccccc3)C[C@@H]3NCCCCC[C@H]32)c1` [CBK286030], the viability at 28.5 h, 10 µM came out at 105%.

In the case of `O=C(O)c1ccc(CN2CC[C@H](c3nc4ccccc4o3)C2)cc1` [CBK289387], the viability at 28.5 h, 10 µM was determined as 108%.

`Cc1cc(C)nc(-n2ncc(C#N)c2N)n1` [CBK270227]: the viability at 28.5 h, 10 µM was 87%.

Take `CCC1(CC)OC(N[C@@H](CO)c2ccccc2)=NC1=O` [CBK126756]: the viability at 28.5 h, 10 µM turned out to be 92.8%.

For the compound `COc1ccc2cc(/C=N/NC(=O)CN3CCCCC3)c(Cl)nc2c1` [CBK018181], the viability at 28.5 h, 10 µM amounted to 95.3%.

With `COc1ccc(Br)cc1S(=O)(=O)n1ccnc1C` [CBK264003], the viability at 28.5 h, 10 µM stood at 87.1%.

As for `CCC(CC)C(=O)N1C[C@H]2CCc3cn(CCNC(C)=O)nc3[C@H]2C1` [CBK282183], the viability at 28.5 h, 10 µM came out at 104%.

`CCS(=O)(=O)c1ccc2oc([C@H]3CCN(C(=O)C4CCCCC4)C3)nc2c1` [CBK289381]: the viability at 28.5 h, 10 µM is 104%.

`COc1ccc(CC(=O)N2CCCc3c(cnn3C)C2)cc1F` [CBK285285]: the viability at 28.5 h, 10 µM stood at 87.9%.

Turning to `Cc1ccc(NC(=O)C(=O)NCCCN2CCOCC2)cc1Cl` [CBK264806], the viability at 28.5 h, 10 µM was found to be 97.4%.

On to `Nc1nc(OCc2ccccc2)cnc1-c1cccc(C(F)(F)F)c1` [CBK145179], for which the viability at 28.5 h, 10 µM was 99.4%.

Take `O=C(OCc1cc([N+](=O)[O-])cc2c1OCOC2)c1ccco1` [CBK297537]: the viability at 28.5 h, 10 µM was found to be 97.9%.

Consider `COc1ccc(CCNc2ncnc3sc4c(c23)CCCCC4)cc1OC` [CBK074384], for which the viability at 28.5 h, 10 µM worked out at 89.9%.

In the case of `COCCN1C(=O)C2(CC(=O)N(CC(=O)N(C)C)C2=O)c2cc(F)ccc21` (centres unmarked) [CBK075428], the viability at 28.5 h, 10 µM worked out at 104%.

On to `CC(C)Cc1noc(CN2CCC(C(=O)NCc3ccco3)CC2)n1` [CBK305995], for which the viability at 28.5 h, 10 µM turned out to be 107%.

In the case of `COc1ccccc1N1CCN(C(=O)NCCCN2CCCC2=O)CC1` [CBK155612], the viability at 28.5 h, 10 µM was determined as 99.5%.

Regarding `Cc1ccc(NC(C(N)=O)c2c(C)[nH]c(=O)[nH]c2=O)cc1` (centres unmarked) [CBK111355], the viability at 28.5 h, 10 µM was determined as 98.4%.

As for `CCOC(=O)c1ccc(N/C=C(\C#N)c2nc(-c3cc4ccccc4oc3=O)cs2)cc1` [CBK262356], the viability at 28.5 h, 10 µM came out at 83.1%.

Turning to `CC(C)C(=O)N1C[C@H]2NC(=O)c3ccccc3C(=O)[C@@]2(C)C1` [CBK281658], the viability at 28.5 h, 10 µM came out at 103%.

With `O=C(CN(c1ccccc1)S(=O)(=O)c1ccc(F)cc1)Nc1ccc(Cl)c(Cl)c1` [CBK268740], the viability at 28.5 h, 10 µM came to 86.6%.

With `Cc1nn(C)cc1C(=O)O[C@H]1C[C@@H](c2ccc(F)cc2)N(C)C1=O` [CBK283615], the viability at 28.5 h, 10 µM worked out at 103%.

In the case of `COc1ccc(N2C(=O)c3ccccc3NC2c2cccc(OCC(=O)Nc3ccccc3)c2)cc1` (centres unmarked) [CBK265406], the viability at 28.5 h, 10 µM worked out at 108%.

With `CC1CCc2c(sc(NC(=O)c3cc(-c4ccccn4)nc4c(Cl)cccc34)c2C(N)=O)C1` (centres unmarked) [CBK267744], the viability at 28.5 h, 10 µM is 94.1%.

With `CN(C)C(=O)C(C)(C)Oc1cc(C(F)(F)F)n(C)n1` [CBK056980], the viability at 28.5 h, 10 µM was 94.2%.

As to `COc1ccc(C2CC(=O)c3c(C)n[nH]c3C2)cc1` (centres unmarked) [CBK287911], the viability at 28.5 h, 10 µM turned out to be 114%.

As for `Cc1nnc(SCc2cc(=O)[nH]c(Nc3nc(C)c4cccc(C)c4n3)n2)s1` [CBK266740], the viability at 28.5 h, 10 µM amounted to 92.9%.

In the case of `CCc1nn2c(O)cc(C)nc2c1-c1cccs1` [CBK283860], the viability at 28.5 h, 10 µM came to 90.7%.

`COc1ccccc1OCc1cc(C)c(C(=O)N2CCN(C)CC2c2ccccc2)o1` (centres unmarked) [CBK286273]: the viability at 28.5 h, 10 µM was 89.3%.

As for `Cc1ccc(C(=O)Nc2cccc3cccnc23)cc1Br` [CBK265189], the viability at 28.5 h, 10 µM was determined as 102%.

Turning to `O=C(C[S+]([O-])c1nc2ccccc2[nH]1)N1CCOCC1` (centres unmarked) [CBK016397], the viability at 28.5 h, 10 µM is 98.1%.

Regarding `COC(=O)CC(C)(C)/C(C)=N/NS(=O)(=O)c1ccc(C)cc1` [CBK263602], the viability at 28.5 h, 10 µM was determined as 86.7%.

Take `CCN(CC)C(=O)CN1C(=O)[C@H]2CCCN2C(=O)c2ccccc21` [CBK286319]: the viability at 28.5 h, 10 µM was found to be 95.5%.

`CCn1nc(C)c(-c2cncn2CCCC(C)(C)CO)c1C` [CBK281807]: the viability at 28.5 h, 10 µM came to 84.4%.

Turning to `COc1cc(CN2CCc3c([nH]c4ccccc34)C2)c([N+](=O)[O-])cc1OC` [CBK261588], the viability at 28.5 h, 10 µM turned out to be 90.6%.

On to `O=C(NCCc1ccccc1Cl)C1(Cc2ccc(-c3cccnc3)cc2)CCOCC1` [CBK285590], for which the viability at 28.5 h, 10 µM amounted to 95.5%.

As to `CC(C)C(=O)N1CC2(CCN(Cc3ccc(Cl)c(Cl)c3)CC2)c2ccccc21` [CBK126715], the viability at 28.5 h, 10 µM came out at 94.7%.

Consider `CCOc1ccc(CN2CCN(CC(=O)Nc3cc(C)on3)CC2)cc1` [CBK306116], for which the viability at 28.5 h, 10 µM was found to be 115%.

On to `COc1cccc2ncn(C(C)c3nc(C)sc3C)c(=O)c12` (centres unmarked) [CBK306570], for which the viability at 28.5 h, 10 µM was 109%.

On to `Cc1ccc(S(=O)(=O)N(C)c2ccnc(N3CCNCC3)n2)cc1` [CBK200009], for which the viability at 28.5 h, 10 µM came to 107%.

Turning to `COC(=O)c1nn(-c2ccccc2)c2cc([N+](=O)[O-])ccc12` [CBK115321], the viability at 28.5 h, 10 µM amounted to 99.3%.

With `N#Cc1cccc(S(=O)(=O)Nc2ccc(-c3nnn[nH]3)cc2)c1` [CBK155427], the viability at 28.5 h, 10 µM was determined as 95.5%.

As to `CN1C[C@@H](NC(=O)Nc2ccccc2)C[C@H]1c1nc(Cc2ccccc2)no1` [CBK288860], the viability at 28.5 h, 10 µM turned out to be 85.2%.

Consider `CC1CCCN(C(=O)CC(NC(N)=O)c2cccc(Br)c2)CC1` (centres unmarked) [CBK305804], for which the viability at 28.5 h, 10 µM stood at 91.7%.

Turning to `CC1CC1C(=O)NC1CCN(CC2(c3ccccc3)CC2)CC1` (centres unmarked) [CBK285353], the viability at 28.5 h, 10 µM is 83.2%.

As for `COc1ccc(NC(=O)[C@@H]2C=CCN2C(=O)C2CC2)cc1` [CBK284277], the viability at 28.5 h, 10 µM was found to be 98.2%.

As to `O=C(Nc1ccc([N+](=O)[O-])cc1)Nc1ccc(N2CCOCC2)c2nonc12` [CBK266885], the viability at 28.5 h, 10 µM was 93.1%.

Turning to `COc1ccc(C(C)C)cc1-c1cnc(N)c(NCCCN2CCOCC2)n1` [CBK063625], the viability at 28.5 h, 10 µM was 79.4%.

As for `O=S(=O)(O)CCCSc1nc2ccccc2o1` [CBK026507N], the viability at 28.5 h, 10 µM was determined as 97.2%.

For `CCCCCC(=O)Nc1ccc(C(=O)Cn2nc(C(=O)O)c3ccccc3c2=O)cc1` [CBK295628], the viability at 28.5 h, 10 µM came to 104%.

With `CCOC(=O)Cc1nc2ccccc2[nH]1` [CBK261674], the viability at 28.5 h, 10 µM was 102%.

Turning to `COc1ccc(C)cc1S(=O)(=O)Nc1cc(N2CCNC(C(F)(F)F)C2)c2occc2c1` (centres unmarked) [CBK073818C], the viability at 28.5 h, 10 µM amounted to 104%.

Regarding `Cc1csc(-c2ccc(C(=O)N(C)CCN(C)C)c(NCC3CC3)n2)c1` [CBK106279], the viability at 28.5 h, 10 µM came to 84.2%.

`CN(C)CCN(Cc1ccccc1)c1ccccc1` [CBK012223C]: the viability at 28.5 h, 10 µM is 114%.

For `O=C(O)c1cc(NC(=O)c2cccc(Oc3ccc([N+](=O)[O-])cc3)c2)cc(C(=O)O)c1` [CBK263528], the viability at 28.5 h, 10 µM stood at 80.8%.

With `O=C(NC1CCCCC1)c1ccc(-n2ccnc2)c(-n2cccc2)c1` [CBK285365], the viability at 28.5 h, 10 µM is 107%.

Consider `CC(=O)N1C[C@H]2CCCN(S(=O)(=O)c3ccc(Cl)s3)[C@H]2C1` [CBK285293], for which the viability at 28.5 h, 10 µM worked out at 105%.

As to `Clc1ccc(OCCOc2ccccc2)nn1` [CBK176034], the viability at 28.5 h, 10 µM was found to be 86.7%.

(Values after publication PMC12040169 (PLOS Biology, 2025).)
